In one data set the target is T1, androgen receptor (Homo sapiens, UniProt P10275, T878A).
T1 construct: androgen receptor in human LNCaP prostate cancer cells in laboratory studies; host or cells: LNCaP
T1 sequence (P10275 1-920 T878A): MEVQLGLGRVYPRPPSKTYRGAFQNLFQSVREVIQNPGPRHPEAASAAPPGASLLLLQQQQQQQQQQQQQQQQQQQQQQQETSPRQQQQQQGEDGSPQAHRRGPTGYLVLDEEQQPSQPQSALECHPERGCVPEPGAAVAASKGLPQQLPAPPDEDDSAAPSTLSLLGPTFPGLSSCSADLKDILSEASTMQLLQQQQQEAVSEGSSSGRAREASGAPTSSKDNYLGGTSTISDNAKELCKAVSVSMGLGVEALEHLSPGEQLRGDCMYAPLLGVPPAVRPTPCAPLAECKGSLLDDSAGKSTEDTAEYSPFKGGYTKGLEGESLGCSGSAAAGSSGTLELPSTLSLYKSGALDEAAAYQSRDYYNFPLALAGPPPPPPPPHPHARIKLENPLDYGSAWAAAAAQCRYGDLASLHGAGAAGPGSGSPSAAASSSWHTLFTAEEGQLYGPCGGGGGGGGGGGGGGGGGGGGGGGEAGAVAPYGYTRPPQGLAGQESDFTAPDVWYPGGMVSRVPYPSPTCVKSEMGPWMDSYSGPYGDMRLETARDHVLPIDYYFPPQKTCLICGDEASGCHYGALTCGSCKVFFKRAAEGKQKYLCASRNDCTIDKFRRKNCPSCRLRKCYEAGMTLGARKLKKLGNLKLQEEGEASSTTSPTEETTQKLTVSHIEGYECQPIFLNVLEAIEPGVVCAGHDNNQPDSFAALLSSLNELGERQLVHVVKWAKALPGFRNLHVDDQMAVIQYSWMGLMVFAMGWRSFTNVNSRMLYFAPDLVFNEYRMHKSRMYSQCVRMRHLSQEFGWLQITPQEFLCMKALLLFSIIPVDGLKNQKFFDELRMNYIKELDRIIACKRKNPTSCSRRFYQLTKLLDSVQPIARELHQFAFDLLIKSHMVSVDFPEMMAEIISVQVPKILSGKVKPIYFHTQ
As to conditions: human LNCaP prostate cancer cells; cited from earlier work.

The subject of data set [1] is cytochrome P450 (CYP) class of enzymes. The note with it: compared with I3C; cited from earlier work.
The test system of a further data set is prostate cancer cells. As to conditions: cited from earlier work.
For data set [2] the following is noted: in vivo, iv.
The test system of data set [3] is LNCaP cells. The experiment in a line: HPLC quantitation of polyamine and acetyl polyamine levels in LNCaP cells. It is filed as cell-based, human. The text has this:
This method is routinely used in the analytical laboratory of the core facility of Cancer Centers and was accessible for quantitative assays necessary for the PK/PD determinations. […] Each data point was an average of two determinations where sample cell pellets were collected from three independent experiments.

In data set [4] the test system is LNCaP cells. Kind of data set: DCF dye oxidation assay of androgen (R1881) induced ROS production. It is filed as cell-based, human. The method, then: SSAT induction is a major source of androgen induced oxidative stress. In order to confirm that SSAT was the major source of androgen induced oxidative stress, we developed and used a stable LNCaP cell clone transfected with plasmid transcribing siRNA designed to silence SSAT mRNA expression. The SSAT mRNA level in these cells was determined by qRT-PCR method. In the cells transfected only with the vector, the SSAT mRNA level increased by over 8-fold after 96 h treatment with R1881, whereas in cells stably transfected with SSAT siRNA (si22), R1881 under similar treatment condition induced less than 2-fold increase in the SSAT transcript, showing over 75% silencing of SSAT mRNA expression. The ROS production induced by androgen analog R1881 in these cells was measured by DCF dye oxidation assay. The green fluorescence of oxidized DCF in androgen treated LNCaP cells was shown. The effect of SSAT silencing on the R1881 induced ROS production measured by DCF assay was also shown. The ratio of DCF fluorescence (green):DNA fluorescence (blue) for each of the treated well of a 96 well plate normalized to that of the average of control untreated wells represents the ROS level per cell relative to that in control untreated cells. The data points are the mean of numbers obtained from repeat experiments using thirty identically treated wells.
Each data point was an average of readings from six wells repeated twice in triplicates. […] The ROS levels of all CPC-200 pretreated cells were normalized to the ROS levels of cells treated with CPC-200 alone.

The subject of data set [5] is prostate tissue in TRAMPxFVB animals. The experiment in a line: In vivo hydroethidine (HEt) dye oxidation in prostate tissue. Also noted: species or system mouse. An excerpt: In parallel to standardizing and validating quantitation of cellular fluorescence intensities with the Bioimager system, we also standardized conditions for fluorescence dye oxidation in animal tissues in vivo and in human tissue ex vivo using standard fluorescence microscopy. For these studies, another dye hydroethidine (HEt) was used. HEt in reduced form is colorless. It is oxidized by the ROS superoxide to ethidium (E^+). The intense fluorescence of E^+ion can be monitored at 488 excitation/595 emission frequencies at sub-nanomolar concentrations. […] After sacrifice, animals were exsanguinated to reduce fluorescence interference from blood hemoglobin. […] Unlike what observed in DCF dye oxidation assay in LNCaP cells where nuclei are more fluorescent than are the cytoplasms (FIG. 5B), the HEt dye fluorescence in the cytoplasm of the normal prostatic lumen is more than that in the nuclei. […] This is ascertained when the fluorescence intensities of HEt dye in the human tumor and normal tissue ROS are quantitated, as described herein.
We standardized the in vivo method of Hydroethidine (HEt) dye oxidation. […] Prostate tissues in paraffin blocks were sectioned on a microtome, thin sections were de-paraffinized and observed under a fluorescence microscope at 480 nm excitation and 600 nm emission wavelengths. […]

The test system of another data set is TRAMP tumors. Kind of data set: Chemopreventive efficacy against TRAMP tumors (tumor development, survival, PET-CT). It is filed as in vivo, mouse. As to the method: Mice are treated with the optimal dose regimen and A cohort of 10 mice from each treatment will be euthanized at 24 weeks of age, when primary tumors are evident in the control group and the tumors collected for pharmacology, necropsy and other toxicity and tumor burden analyses. […] The remaining 20 mice per condition were followed for survival. Body weights and tumor volumes were measured once weekly throughout the study. A cohort of 10 mice in this treatment group is also monitored over the course of drug treatment by PET-CT scan for tumor growth and metastases. Each mouse is injected with ^124I labeled NM-404 per standard protocol and imaged on the microPET-microCT scanner.

Data set [6] can be described thus: Observed adverse side effects of CPC-200 treatment in vivo.

Entries after “also recorded” stand apart in the source; their conditions may differ.

For `c1ccc2c(Cc3c[nH]c4ccccc34)c[nH]c2c1` [DIM, 3,3′-Diindolylmethane], on androgen receptor, the androgen receptor activation entry is given as “block androgen receptor activation” and the “binding of dihydrotestosterone (DHT) to the androgen receptor” value was “decreased binding”. The “induction of cytochrome P450 (CYP) class of enzymes” value in [1] is listed as “to a lesser extent than does I^3C”. The PSA entry in the data set with prostate cancer cells is given as “downregulation of PSA”. Moreover, the “proliferation of prostate cancer cells” value in the data set on prostate cancer cells (in vitro and in a mouse xenograft model) is “inhibition of proliferation”.
Regarding `CCN1c2cc(N)ccc2-c2ccc(N)cc2C1c1ccccc1` (centres unmarked) [HEt, hydroethidine], the “safety of i.v. injection” value in data set [2] is recorded as “can be safely injected i.v”.
Turning to “N,N′-bis(butadienyl)-1,4-butanediamine [CPC-200]”, the “R1881 induced increase in putrescine and spermidine” value with LNCaP cells [3] (24 h CPC-200 pretreatment of R1881-treated cells) is recorded as “almost completely blocked”. Further, in the data set on LNCaP cells [3] (CPC-200 treatment alone), the “effect on most cellular polyamine levels” value was “little or no significant effect”. Also, the “R1881 (≧1 nM) induced ROS production” value in the data set with LNCaP cells [4] (LNCaP cells, 24 h pretreatment with 25 μM CPC-200, R1881 96 h) is reported as “effectively blocked”. In addition, in the data set on LNCaP cells [4] (LNCaP cells, CPC-200 treatment alone (25 μM)), the “cellular ROS levels” value is reported as “minor decrease”. In addition, the “androgen-induced oxidative stress in cultured androgen-dependent human prostate cancer cells” value in the data set on LNCaP cells [4] (summary statement) was “significantly reduces oxidative stress; also recorded: almost completely blocked”. In addition, the “oxidative stress in prostate tissue / pre-neoplastic lesions in vivo” value in data set [5] (TRAMP model, summary statement) is given as “significantly reduces oxidative stress; also recorded: unambiguous reduction in oxidative stress”. Also, the “HEt reporter dye monitored oxidation in prostatic tissue” value in data set [5] (TRAMPxFVB mice, six administrations of 25 mg/kg CPC-200 i.p. once every two weeks, HEt 8 mg/kg i.v.) was “no significant HEt reporter dye monitored oxidation is detected”. In the data set on TRAMP tumors (TRAMP mice), the overall survival result is “greatly increases; also recorded: markedly increased”. The “time to spontaneous prostate tumor development” value with TRAMP tumors (TRAMP model) is on record as “markedly delays; also recorded: greatly delayed”. For the same molecule, the “prostate tumor by PET-CT scan” value in the data set on TRAMP tumors (TRxF male mice, scans at age 8, 12, 18 and 24 weeks) was “no prostate tumor”. Moreover, the adverse side effects result in data set [6] is on record as “without any observable adverse side effects”.

The values are drawn from patent US20110091931A1, “Methods and Kits for Determining Oxygen Free Radical (OFR) Levels in Animal and Human Tissues as a Prognostic Marker for Cancer and Other Pathophysiologies” (COLBY PHARMACEUTICAL COMPANY, priority 2009, published 2011).
